How the values were obtained:
Experiment in all cases: relative viability (nuclei count vs DMSO), 5 days (fraction); higher = more cells survive
ABC-1 = tested on: ABC-1
Outline: (§1)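 Medians of duplicate plates are given as relative viability. That measure is the nuclei count in treated wells divided by the count in vehicle wells. Counts were taken on 4× images of lung cancer cell lines in 1536-well plates, 5 days after pin-tool dosing the day after seeding with one drug alone or a fixed anchor-drug dose plus five library-drug doses (not always all listed) in √10 steps.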

CAL-12T = tested on: CAL-12T
Outline: as §1

COR-L23 = tested on: COR-L23
Outline: as §1

EKVX = tested on: EKVX
Outline: as §1

H3255 = tested on: H3255
Outline: as §1

HCC-15 = tested on: HCC-15
Outline: as §1

HCC-827 = tested on: HCC-827
Outline: as §1

LK-2 = tested on: LK-2
Outline: as §1

NCI-H1355 = tested on: NCI-H1355
Outline: as §1

NCI-H1437 = tested on: NCI-H1437
Outline: as §1

NCI-H1563 = tested on: NCI-H1563
Outline: as §1

NCI-H1650 = conditions: first compound 0.005 µM
Outline: as §1

`CC1(C)CCC(c2ccc(Cl)cc2)=C(CN2CCN(c3ccc(C(=O)NS(=O)(=O)c4ccc(N[C@H](CCN5CCOCC5)CSc5ccccc5)c(S(=O)(=O)C(F)(F)F)c4)cc3)CC2)C1` [Navitoclax] + COc1cc2c(Oc3ccc(NC(=O)C4(C(=O)Nc5ccc(F)cc5)CC4)cc3F)ccnc2cc1OCCCN1CCOCC1 [Foretinib] (partner 0.25 µM) showed a relative viability (ABC-1; first compound 0.005 µM) of 1.32, a relative viability (ABC-1; first compound 0.01581 µM) of 1.17 and a relative viability (ABC-1; first compound 0.05 µM) of 1.12. It also gave a relative viability (ABC-1; first compound 0.1581 µM) of 1.07, a relative viability (ABC-1; first compound 0.5 µM) of 1.05 and a relative viability (CAL-12T; first compound 0.005 µM) of 1.08. For the same molecule, the relative viability (CAL-12T; first compound 0.01581 µM) was 1.17, the relative viability (CAL-12T; first compound 0.05 µM) was 1.16 and the relative viability (CAL-12T; first compound 0.1581 µM) was 1.11. For the same molecule, the relative viability (CAL-12T; first compound 0.5 µM) was 1.11, the relative viability (COR-L23; first compound 0.005 µM) was 0.957 and the relative viability (COR-L23; first compound 0.01581 µM) was 1.13. It also gave a relative viability (COR-L23; first compound 0.05 µM) of 1.02, a relative viability (COR-L23; first compound 0.1581 µM) of 0.938 and a relative viability (COR-L23; first compound 0.5 µM) of 0.947. For the same molecule, the relative viability (EKVX; first compound 0.005 µM) was 1.02, the relative viability (EKVX; first compound 0.01581 µM) was 1.01 and the relative viability (EKVX; first compound 0.05 µM) was 0.544. It also gave a relative viability (EKVX; first compound 0.1581 µM) of 0.8, a relative viability (EKVX; first compound 0.5 µM) of 0.629 and a relative viability (H3255; first compound 0.005 µM) of 0.884. It also gave a relative viability (H3255; first compound 0.01581 µM) of 0.973, a relative viability (H3255; first compound 0.05 µM) of 0.764 and a relative viability (H3255; first compound 0.1581 µM) of 0.861. It also gave a relative viability (H3255; first compound 0.5 µM) of 0.787, a relative viability (HCC-15; first compound 0.005 µM) of 1.01 and a relative viability (HCC-15; first compound 0.01581 µM) of 1.05. For the same molecule, the relative viability (HCC-15; first compound 0.05 µM) was 0.977, the relative viability (HCC-15; first compound 0.1581 µM) was 0.982 and the relative viability (HCC-15; first compound 0.5 µM) was 0.918. For the same molecule, the relative viability (HCC-827; first compound 0.005 µM) was 0.914, the relative viability (HCC-827; first compound 0.01581 µM) was 1.05 and the relative viability (HCC-827; first compound 0.05 µM) was 0.832. For the same molecule, the relative viability (HCC-827; first compound 0.1581 µM) was 1.03, the relative viability (HCC-827; first compound 0.5 µM) was 1.01 and the relative viability (LK-2; first compound 0.005 µM) was 1.22. For the same molecule, the relative viability (LK-2; first compound 0.01581 µM) was 1.15, the relative viability (LK-2; first compound 0.05 µM) was 0.645 and the relative viability (LK-2; first compound 0.1581 µM) was 1.24. For the same molecule, the relative viability (LK-2; first compound 0.5 µM) was 1.08, the relative viability (NCI-H1355; first compound 0.005 µM) was 0.993 and the relative viability (NCI-H1355; first compound 0.01581 µM) was 0.951. The relative viability (NCI-H1355; first compound 0.05 µM) was 0.939, the relative viability (NCI-H1355; first compound 0.1581 µM) was 0.941 and the relative viability (NCI-H1355; first compound 0.5 µM) was 0.965. It also gave a relative viability (NCI-H1437; first compound 0.005 µM) of 1.18, a relative viability (NCI-H1437; first compound 0.01581 µM) of 1.3 and a relative viability (NCI-H1437; first compound 0.05 µM) of 1.1. The relative viability (NCI-H1437; first compound 0.1581 µM) was 1.31, the relative viability (NCI-H1437; first compound 0.5 µM) was 1.27 and the relative viability (NCI-H1563; first compound 0.005 µM) was 0.948. It also gave a relative viability (NCI-H1563; first compound 0.01581 µM) of 0.967, a relative viability (NCI-H1563; first compound 0.05 µM) of 0.856 and a relative viability (NCI-H1563; first compound 0.1581 µM) of 0.987. For the same molecule, the relative viability (NCI-H1563; first compound 0.5 µM) was 1.03 and the relative viability (NCI-H1650) was 1.08.
